# Measured values from US4593104A, “2-halo-N-(azole-1-yl-methyl)-substituted acetanilides” (BASF Aktiengesellschaft, priority 1976, dated 1986).
# What was measured:
# Assay in all cases: preemergence treatment in the greenhouse, % damage
# Setaria spp. = type: in vivo
# From the text: (§1) The vessels employed were plastic flowerpots having a volume of 300 cm^3; the substrate was a sandy loam containing about 1.5% humus. The seeds of the test plants (see Table 1) were sown shallow, and separated according to species. In the case of Cyperus esculentus, pregerminated tubers were planted. In the preemergence treatment, the active ingredients were then immediately applied to the surface of the soil. They were suspended or emulsified in water as the vehicle, and sprayed through atomizing nozzles. After the agents had been applied, the vessels were lightly sprinkler-irrigated to set germination and growth going, and to activate the chemical agents. The vessels were then covered with transparent plastic hoods until the plants had taken root. This cover ensured uniform germination of the test plants (to the extent that this was not impaired by the chemicals), and prevented readily volatile substances from evaporating.
# (§2) For postemergence treatment, the plants were first grown to a height of from 3 to 10 cm, depending on their habit, before treated. Hoods were not placed on the pots. The experiments were set up in the greenhouse, hotter areas (25° to 40° C.) being preferred for heat-loving species, and 15° to 30° C. for plants from moderate climates. The experiments were carried out for from 4 to 6 weeks. During this period the plants were tended and their reaction to the various treatments was assessed. The following tables contain the substances investigated, the application rates in kg/ha of active ingredient, and the test plant species. Assessments were made on a 0 to 100 scale, 0 denoting no damage or normal emergence, and 100 denoting no emergence or complete destruction of at least the visible plant parts.
# Echin. c.g. = type: in vivo
# From the text: as §1, §2
# Cyp. diff. = type: in vivo
# From the text: as §1, §2
# Amar. retro. = type: in vivo
# From the text: as §1, §2
# Alopec. myosur. = type: in vivo
# From the text: as §1, §2
# Sorgh. halep. = type: in vivo
# From the text: as §1, §2
# Zea mays = type: in vivo
# From the text: as §1, §2
# Sorgh. bicol. = type: in vivo, Sorghum bicolor
# From the text: as §1, §2
# Beta vulg. = type: in vivo, Beta vulgaris
# From the text: as §1, §2
# Glyc. max = type: in vivo, Glycine max
# From the text: as §1, §2
# Bromus spp. = type: in vivo
# From the text: as §1, §2
# Matric. spp. = type: in vivo
# From the text: as §1, §2
# Cyper. escul. = type: in vivo, Cyperus esculentus
# From the text: as §1, §2
# Gossyp. hirs. = type: in vivo, Gosspyium hirsutum
# From the text: as §1, §2
# Solanum nigrum = type: in vivo
# From the text: as §1, §2
# Euph. gen. = type: in vivo
# From the text: as §1, §2
smiles,measurement,setting,value
Cc1cc(C)c(N(Cn2cccn2)C(=O)CCl)c(C)c1 [Compound 13],% damage,Setaria spp.; 2.0 kg/ha,90%
same,% damage,Echin. c.g.; 2.0 kg/ha,100%
same,% damage,Cyp. diff.; 2.0 kg/ha,90%
same,% damage,Amar. retro.; 2.0 kg/ha,100%
same,% damage,Alopec. myosur.; 2.0 kg/ha,80%
same,% damage,Sorgh. halep.; 2.0 kg/ha,80%
CCc1cccc(C)c1N(Cn1cc(C)cn1)C(=O)CCl,% damage,Echin. c.g.; 3.0 kg/ha,100%
Cc1cc(C)c(N(Cn2nc(C)cc2C)C(=O)CCl)c(C)c1 [Compound 46],% damage,Setaria spp.; 1.0 kg/ha,100%
same,% damage,Echin. c.g.; 1.0 kg/ha,100%
same,% damage,Cyp. diff.; 1.0 kg/ha,100%
same,% damage,Amar. retro.; 1.0 kg/ha,90%
same,% damage,Alopec. myosur.; 1.0 kg/ha,60%
same,% damage,Sorgh. halep.; 1.0 kg/ha,80%
CCc1ccccc1N(Cn1nc(C)cc1C)C(=O)CCl [Compound 36],% damage,Setaria spp.; 0.5 kg/ha,90%
same,% damage,Setaria spp.; 1.0 kg/ha,95%
same,% damage,Echin. c.g.; 0.5 kg/ha,80%
same,% damage,Echin. c.g.; 1.0 kg/ha,95%
same,% damage,Amar. retro.; 0.5 kg/ha,95%
same,% damage,Amar. retro.; 1.0 kg/ha,95%
same,% damage,Alopec. myosur.; 0.5 kg/ha,90%
same,% damage,Alopec. myosur.; 1.0 kg/ha,100%
same,% damage,Sorgh. halep.; 0.5 kg/ha,40%
same,% damage,Sorgh. halep.; 1.0 kg/ha,40%
Cc1cc(C)n(CN(C(=O)CCl)c2c(C)cccc2C(C)C)n1 [Compound 42],% damage,Setaria spp.; 1.0 kg/ha,100%
same,% damage,Echin. c.g.; 1.0 kg/ha,100%
same,% damage,Cyp. diff.; 1.0 kg/ha,100%
same,% damage,Amar. retro.; 1.0 kg/ha,100%
same,% damage,Alopec. myosur.; 1.0 kg/ha,95%
same,% damage,Sorgh. halep.; 1.0 kg/ha,90%
Cc1cc(C)n(CN(C(=O)CCl)c2cccc(C)c2C)n1 [Compound 50],% damage,Setaria spp.; 1.0 kg/ha,100%
same,% damage,Echin. c.g.; 1.0 kg/ha,100%
same,% damage,Cyp. diff.; 1.0 kg/ha,100%
same,% damage,Amar. retro.; 1.0 kg/ha,100%
same,% damage,Alopec. myosur.; 1.0 kg/ha,90%
same,% damage,Sorgh. halep.; 1.0 kg/ha,70%
CCc1ccccc1N(Cn1ccc(C)n1)C(=O)CCl [Compound 69],% damage,Setaria spp.; 0.5 kg/ha,80%
same,% damage,Amar. retro.; 0.5 kg/ha,95%
same,% damage,Alopec. myosur.; 0.5 kg/ha,100%
same,% damage,Zea mays; 0.5 kg/ha,0%
same,% damage,Sorgh. bicol.; 0.5 kg/ha,10%
same,% damage,Beta vulg.; 0.5 kg/ha,20%
same,% damage,Glyc. max; 0.5 kg/ha,20%
Cc1cccc(C(C)C)c1N(Cn1cncn1)C(=O)CCl [Compound 131],% damage,Setaria spp.; 2.0 kg/ha,100%
same,% damage,Echin. c.g.; 2.0 kg/ha,100%
same,% damage,Cyp. diff.; 2.0 kg/ha,100%
same,% damage,Amar. retro.; 2.0 kg/ha,80%
same,% damage,Alopec. myosur.; 2.0 kg/ha,70%
same,% damage,Sorgh. halep.; 2.0 kg/ha,80%
CCc1cccc(CC)c1N(Cn1nc(C)c(Cl)c1C)C(=O)CCl [Compound 108],% damage,Setaria spp.; 2.0 kg/ha,90%
same,% damage,Echin. c.g.; 2.0 kg/ha,100%
same,% damage,Cyp. diff.; 2.0 kg/ha,100%
same,% damage,Amar. retro.; 2.0 kg/ha,100%
same,% damage,Alopec. myosur.; 2.0 kg/ha,70%
same,% damage,Sorgh. halep.; 2.0 kg/ha,60%
CCc1cccc(C)c1N(Cn1nc(C)c(Cl)c1C)C(=O)CCl [Compound 107],% damage,Setaria spp.; 2.0 kg/ha,95%
same,% damage,Amar. retro.; 2.0 kg/ha,95%
same,% damage,Alopec. myosur.; 2.0 kg/ha,95%
same,% damage,Zea mays; 2.0 kg/ha,0%
same,% damage,Sorgh. bicol.; 2.0 kg/ha,85%
same,% damage,Beta vulg.; 2.0 kg/ha,0%
same,% damage,Glyc. max; 2.0 kg/ha,0%
Cc1cccc(C)c1N(Cn1cc(Cl)cn1)C(=O)CCl,% damage,Setaria spp.; 1.0 kg/ha,95%
same,% damage,Setaria spp.; 2.0 kg/ha,100%
same,% damage,Echin. c.g.; 1.0 kg/ha,100%
same,% damage,Echin. c.g.; 2.0 kg/ha,100%
same,% damage,Alopec. myosur.; 1.0 kg/ha,95%
same,% damage,Alopec. myosur.; 2.0 kg/ha,100%
same,% damage,Bromus spp.; 1.0 kg/ha,92%
same,% damage,Bromus spp.; 2.0 kg/ha,95%
same,% damage,Matric. spp.; 1.0 kg/ha,75%
same,% damage,Matric. spp.; 2.0 kg/ha,80%
same,% damage,Beta vulg.; 1.0 kg/ha,3%
same,% damage,Beta vulg.; 2.0 kg/ha,13%
same,% damage,Glyc. max; 1.0 kg/ha,5%
same,% damage,Glyc. max; 2.0 kg/ha,20%
Cc1cccc(N(Cn2cncn2)C(=O)CCl)c1C [Compound 139],% damage,Setaria spp.; 2.0 kg/ha,30%
same,% damage,Echin. c.g.; 2.0 kg/ha,90%
same,% damage,Cyp. diff.; 2.0 kg/ha,90%
same,% damage,Amar. retro.; 2.0 kg/ha,40%
same,% damage,Alopec. myosur.; 2.0 kg/ha,70%
same,% damage,Sorgh. halep.; 2.0 kg/ha,50%
CCc1cccc(CC)c1N(Cn1cncn1)C(=O)CCl [Compound 130],% damage,Cyper. escul.; 0.5 kg/ha,40%
same,% damage,Cyper. escul.; 1.0 kg/ha,70%
same,% damage,Cyper. escul.; 2.0 kg/ha,80%
same,% damage,Gossyp. hirs.; 0.5 kg/ha,20%
same,% damage,Gossyp. hirs.; 1.0 kg/ha,30%
same,% damage,Gossyp. hirs.; 2.0 kg/ha,30%
same,% damage,Setaria spp.; 0.5 kg/ha,85%
same,% damage,Setaria spp.; 1.0 kg/ha,95%
same,% damage,Setaria spp.; 2.0 kg/ha,100%
same,% damage,Echin. c.g.; 0.5 kg/ha,95%
same,% damage,Echin. c.g.; 1.0 kg/ha,100%
same,% damage,Echin. c.g.; 2.0 kg/ha,100%
same,% damage,Amar. retro.; 0.5 kg/ha,95%
same,% damage,Amar. retro.; 1.0 kg/ha,100%
same,% damage,Amar. retro.; 2.0 kg/ha,100%
same,% damage,Solanum nigrum; 0.5 kg/ha,100%
same,% damage,Solanum nigrum; 1.0 kg/ha,100%
same,% damage,Solanum nigrum; 2.0 kg/ha,100%
same,% damage,Euph. gen.; 0.5 kg/ha,60%
same,% damage,Euph. gen.; 1.0 kg/ha,60%
same,% damage,Euph. gen.; 2.0 kg/ha,100%
same,% damage,Glyc. max; 0.5 kg/ha,20%
same,% damage,Glyc. max; 1.0 kg/ha,20%
same,% damage,Glyc. max; 2.0 kg/ha,20%
Cc1cnn(CN(C(=O)CCl)c2c(C)cccc2C)c1,% damage,Setaria spp.; 0.5 kg/ha,92%
same,% damage,Setaria spp.; 1.0 kg/ha,100%
same,% damage,Echin. c.g.; 0.5 kg/ha,98%
same,% damage,Echin. c.g.; 1.0 kg/ha,98%
same,% damage,Alopec. myosur.; 0.5 kg/ha,90%
same,% damage,Alopec. myosur.; 1.0 kg/ha,95%
same,% damage,Bromus spp.; 0.5 kg/ha,95%
same,% damage,Bromus spp.; 1.0 kg/ha,95%
same,% damage,Matric. spp.; 0.5 kg/ha,100%
same,% damage,Matric. spp.; 1.0 kg/ha,100%
same,% damage,Beta vulg.; 0.5 kg/ha,0%
same,% damage,Beta vulg.; 1.0 kg/ha,0%
same,% damage,Glyc. max; 0.5 kg/ha,0%
same,% damage,Glyc. max; 1.0 kg/ha,10%
